Experimental data published in US11998619B2, “Compound, antiinflammatory drug comprising the compound and cyclooxygenase-2 inhibitor comprising the compound” (priority 2018, dated 2024).

Key:
[1] = system: MCAO-R stroke animal model; experiment: Cerebral infarction in MCAO-R stroke animal model (TTC staining); format: in vivo, Sprague Dawley (SD) rats; settings: 24 hours after reperfusion; FIG. 5B
[2] = system: cyclooxygenase-2 (COX-2); experiment: Western blot of COX-2 in tissue at the cerebral infarction site, MCAO-R model; format: in vivo, Sprague Dawley (SD) rats; settings: FIG. 5C
[3] = system: COX-2; experiment: Western blotting of COX-2 expression after LPS treatment; format: cell-based; settings: Western blot, FIG. 4
[4] = system: COX-2; experiment: Immunofluorescence of COX-2 in LPS-treated cells; settings: FIG. 3
Protocol: Anti-inflammatory properties were evaluated based on in vitro experiments. Specifically, cells were treated with lipopolysaccharide (LPS) as an inflammation-inducing substance, thereby to induce an inflammatory reaction. […] Then, immunofluorescence images thereof were taken to identify COX-2 inhibitory ability thereof in the cells.
The green fluorescence indicates the presence of COX-2 which is induced by an inflammatory reaction in cells via treatment with LPS.

Row | Structure (SMILES) | inhibition of cerebral infarction [1] | inhibition of COX-2 protein amount at cerebral infarction site [2] | COX-2 expression inhibition (COX-2 band) [3] | COX-2 inhibitory ability (green fluorescence, COX-2 positive cells) [4]
1 | O=C(O)c1cc(-c2ccc(F)cc2F)ccc1O [diflunisal] | significantly inhibit the cerebral infarction | exhibit inhibition of COX-2 activity | do not achieve COX-2 inhibition effect | slightly lower than that in cells (LPS) treated with only LPS
2 | O=C(O)CCC(=O)c1ccc(-c2ccccc2)cc1 [fenbufen] | – | – | do not achieve COX-2 inhibition effect | –
3 | CC1=C(CC(=O)O)c2cc(F)ccc2/C1=C\c1ccc([S+](C)[O-])cc1 (stereo not shown) [sulindac] | – | – | has COX-2 inhibition ability | excellent COX-2 inhibition ability
